From article PMC7926352, “Synthesis, Characterization and In Vitro Evaluation of Novel 5-Ene-thiazolo[3,2-b][1,2,4]triazole-6(5H)-ones as Possible Anticancer Agents” (Molecules, 2021)

Experiments:
[1] = tested on: PC-3
[2] = tested on: RXF 393
[3] = tested on: KM12
[4] = tested on: OVCAR-8
[5] = tested on: SF-268
[6] = tested on: MDA-MB-435
[7] = tested on: UACC-62
[8] = tested on: BT-549
[9] = tested on: DU-145
[10] = tested on: Breast Cancer cell lines
[11] = tested on: Melanoma cell lines
[12] = tested on: LOX IMVI
[13] = tested on: SN12C
[14] = tested on: CCRF-CEM
[15] = tested on: UO-31
[16] = tested on: U251
[17] = tested on: ACHN
[18] = tested on: HS 578T
[19] = tested on: EKVX
[20] = tested on: SK-MEL-28
[21] = tested on: NCI-H522
[22] = tested on: SR
[23] = tested on: SK-MEL-5
[24] = tested on: Prostate Cancer cell lines; design: LC50, values range inside panel: unit not given beside the values
[25] = tested on: HCT-116
[26] = tested on: NCI-H460
[27] = tested on: TK-10
[28] = tested on: NCI/ADR-RES
[29] = tested on: OVCAR-5
[30] = tested on: 786-0
[31] = tested on: UACC-257
[32] = tested on: K-562
[33] = tested on: Leukemia cell lines; design: LC50, values range inside panel: unit not given beside the values
[34] = tested on: Ovarian Cancer cell lines
[35] = tested on: panel of approximately sixty human tumor cell lines; test: NCI-60 human tumor cell lines screen (SRB), full panel; format: cell-based
[36] = tested on: SF-539
[37] = tested on: MALME-3M
[38] = tested on: MOLT-4
[39] = tested on: HOP-92
[40] = tested on: MDA-MB-231/ATCC
[41] = tested on: OVCAR-4
[42] = tested on: HCT-15
[43] = tested on: SK-MEL-2
[44] = tested on: SNB-75
[45] = tested on: MCF7
[46] = tested on: SK-OV-3
[47] = tested on: SW-620
[48] = tested on: HCC-2998
[49] = tested on: CNS Cancer cell lines; design: LC50, values range inside panel: unit not given beside the values
[50] = tested on: IGROV1; format: cell-based, human; details: IGROV1, Ovarian Cancer
[51] = tested on: HT29

## Ethyl(Z)-4-(3-(4-chloro-2-((6-oxothiazolo[3,2-b][1,2,4]triazol-5(6H)-ylidene)methyl)phenyl)propanamido)benzoate [Compound 2i]
[1]
  CC50: > 100 µM
[2]
  CC50: 58.9 µM
[3]
  CC50: 55 µM
[4]
  CC50: 85.1 µM
[5]
  CC50: > 100 µM
[6]
  CC50: > 100 µM
[7]
  CC50: 51.3 µM
[8]
  CC50: 60.2 µM
[9]
  CC50: 36.3 µM
[10]
  CC50: 73.2 µM
[11]
  CC50: 42.6 to 77.6 µM
[12]
  CC50: 42.6 µM
[13]
  CC50: 58.9 µM
[14]
  CC50: > 100 µM
[15]
  CC50: 55 µM
[16]
  CC50: 43.6 µM
[17]
  CC50: 53.7 µM
[18]
  CC50: 60.2 µM
[19]
  CC50: 50.1 µM
[20]
  CC50: 49 µM
[21]
  CC50: 72.4 µM
[22]
  CC50: > 100 µM
[23]
  CC50: 46.8 µM
[24]
  CC50: 68.2 µM
  LC50, values range inside panel: 36.30– >100
[25]
  CC50: 55 µM
[26]
  CC50: 56.2 µM
[27]
  CC50: 51.3 µM
[28]
  CC50: > 100 µM
[29]
  CC50: 58.9 µM
[30]
  CC50: 51.3 µM
[31]
  CC50: 63.1 µM
[32]
  CC50: > 100 µM
[33]
  CC50: 99.2 µM
  LC50, values range inside panel: 95.49– >100
[34]
  CC50: 68.7 µM
[35]
  CC50: 63.1 µM
[36]
  CC50: 50.1 µM
[37]
  CC50: 53.7 µM
[38]
  CC50: > 100 µM
[39]
  CC50: 83.2 µM
[40]
  CC50: > 100 µM
[41]
  CC50: > 100 µM
[42]
  CC50: 55 µM
[43]
  CC50: 77.6 µM
[44]
  CC50: > 100 µM
[45]
  CC50: 50.1 µM
[46]
  CC50: 61.6 µM
[47]
  CC50: 46.8 µM
[48]
  CC50: 66.1 µM
[49]
  CC50: 66.2 µM
  LC50, values range inside panel: 43.65– >100
[50]
  GI50: 6.6 µM
  TGI: 20.89 µM
[51]
  CC50: 49 µM
